Experimental data reported in patent US20250025438A1, “Derivative of aspartic acid and use thereof in treatment of metabolic diseases such as hepatic fibrosis and non-alcoholic hepatitis” (SHENZHEN JINGTAI TECHNOLOGY CO., LTD., priority 2021, published 2025).

Experiments:
NAFLD induced by CHOL = assay: Mouse NAFLD model induced by CHOL, H&E staining; format: in vivo, C57BL/6J male mice; conditions: CHOL diet mice, 10, 50, 150 mg/kg by gavage bid, 8 weeks, vs untreated group, FIG. 10
Procedure: (§1) • (1) C57BL/6J male mice aged 6 to 8 weeks were selected and randomly divided into normal diet group (n=10) and HFD or CHOL group; the weight changes of the mice were recorded during the modeling period, and the modeling was conducted for 8 weeks (CHOL) or 10 weeks (HFD), then the mice in the HFD or CHOL group were randomly divided into groups according to their body weights, plus the negative control group, a total of 5 groups:
(§2) (2) Mice in the negative control group (n=10): The animals were fed with normal diet, and 200 μL of drinking water was administered by gavage, bid.
(§3) Mice in HFD or CHOL group (n=10): The animals were fed with HFD or CHOL diet, and 200 μL of normal saline was administered by gavage at the same time, bid. (Note: HFD (60% high fat) feed (Whitby Technology Development (Beijing) Co., Ltd.) (D12492), CHOL (40% high fat +1.25% cholesterol) feed (Whitby Technology Development (Beijing) Co., Ltd.) (D12108C)) (3) Mice in Compound 6-low dose group (n=10): The animals were fed with HFD or CHOL diet, and administrated simultaneously with Compound 6 at a dose of 10 mg/kg by gavage, bid.
(§4) (4) Mice in Compound 6-middle dose group (n=10): The animals were fed with HFD or CHOL diet, and administrated simultaneously with Compound 6 at a dose of 50 mg/kg by gavage, bid. […]

NS3TP1 = NS3TP1 expression in liver tissue of CCl4 liver fibrosis mice; format: in vivo, C57BL/6 wild-type mice; conditions: CCl4-induced mice, different doses by gavage, vs untreated group, FIG. 5
Procedure: Long-term intraperitoneal injection of carbon tetrachloride (CCl4) induced reversible liver fibrosis, which was often used to screen and evaluate anti-hepatic fibrosis drugs. C57BL/6 wild-type mice were randomly divided into control group, carbon tetrachloride group and treatment group. The treatments were as follows:
Mice in the carbon tetrachloride group: The animals were intraperitoneally injected with carbon tetrachloride in a total amount of 0.5 μL/g, diluted with corn oil to 10 μL/g, 3 times/week. […]

NAFLD induced by HFD = assay: Mouse NAFLD model induced by HFD, H&E staining; format: in vivo, C57BL/6J male mice; conditions: HFD diet mice, 10, 50, 150 mg/kg by gavage bid, 8 weeks, vs untreated group, FIG. 9
Procedure: as §1, §2, §3, §4

COC(=O)C[C@H](N)C(=O)O [Compound 6]
lipid droplet aggregation in the liver tissue of mice (H&E) (NAFLD induced by CHOL): reduced in a dose-dependent manner | expression of NS3TP1 in the liver tissue of mice (NS3TP1): gradually increased in a dose-dependent manner | lipid droplet aggregation in the liver tissue of mice (H&E) (NAFLD induced by HFD): reduced in a dose-dependent manner
